How the values were obtained:
[1] = molecular target: T1, AibH1H2 (Rhodococcus wratislaviensis, UniProt A0A402C2Q3); test: GC-MS of silylated D-MeSer product; assay type: biochemical; details: preliminary estimate; O2, ascorbate as reductant, 1 equiv Fe(II) added to Mn-grown enzyme; 20 mM HEPES pH 8.0, 30 °C
T1 construct: gene Rhow_000803; recombinant, E. coli BL21(DE3), pET-Duet-AibH1H2 with GroEL/ES-TF; His6-tagged; (alpha-beta)2 heterotetramer; Mn-grown (MnAibH1H2), Fe(II) added; with 2-aminoisobutyric acid hydroxylase subunit AibH1 (amidohydrolase family protein)

[2] = molecular target: T2, AibH1H2 (Rhodococcus wratislaviensis, UniProt A0A402C2Q3, D342A); test: enzymatic activity assay (GC-MS); assay type: biochemical; details: diminished activity although all metals are incorporated
T2 construct: gene Rhow_000803; recombinant, E. coli BL21(DE3), pET-Duet-AibH1H2 with GroEL/ES-TF; His6-tagged; (alpha-beta)2 heterotetramer; Mn-grown (MnAibH1H2), Fe(II) added; with 2-aminoisobutyric acid hydroxylase subunit AibH1 (amidohydrolase family protein)
T2 sequence (A0A402C2V4 entry or part of it, stated change not applied): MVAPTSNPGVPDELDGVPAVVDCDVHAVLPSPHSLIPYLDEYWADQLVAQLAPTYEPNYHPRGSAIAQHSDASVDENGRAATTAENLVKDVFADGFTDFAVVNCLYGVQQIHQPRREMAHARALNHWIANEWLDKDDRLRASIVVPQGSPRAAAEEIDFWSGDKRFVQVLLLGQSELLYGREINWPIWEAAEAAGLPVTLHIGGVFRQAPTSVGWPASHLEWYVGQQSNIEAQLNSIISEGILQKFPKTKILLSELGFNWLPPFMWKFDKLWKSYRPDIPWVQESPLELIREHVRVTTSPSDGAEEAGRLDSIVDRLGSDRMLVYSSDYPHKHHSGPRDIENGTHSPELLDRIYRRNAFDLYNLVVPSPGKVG
T2 sequence (A0A402C2Q3 entry or part of it D342A): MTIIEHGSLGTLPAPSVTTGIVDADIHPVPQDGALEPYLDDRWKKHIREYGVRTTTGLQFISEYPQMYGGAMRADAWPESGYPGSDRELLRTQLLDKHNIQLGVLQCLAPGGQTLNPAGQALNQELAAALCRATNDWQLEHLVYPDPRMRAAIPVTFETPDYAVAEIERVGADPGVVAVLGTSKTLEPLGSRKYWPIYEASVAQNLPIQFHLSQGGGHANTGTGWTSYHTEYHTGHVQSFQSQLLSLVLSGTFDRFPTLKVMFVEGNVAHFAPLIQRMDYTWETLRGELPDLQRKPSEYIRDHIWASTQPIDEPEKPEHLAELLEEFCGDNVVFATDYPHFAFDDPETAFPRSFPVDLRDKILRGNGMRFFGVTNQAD

T1 sequence (A0A402C2Q3 entry or part of it): as the sequence (A0A402C2Q3 entry or part of it D342A) above, with A342D counted along it
T1 sequence (A0A402C2V4 entry or part of it, further chain): as the sequence (A0A402C2V4 entry or part of it, stated change not applied) above

- Km [1]: > 100 mM
SMILES: CC(C)(N)C(=O)O [AIB, 2-aminoisobutyric acid]
- enzymatic activity assay (GC-MS) [2]: upon substitution to alanine, results in protein with diminished enzymatic activity

Reference: article PMC10401708, “Enzymatic Hydroxylation of Aliphatic C–H Bonds by a Mn/Fe Cofactor” (Journal of the American Chemical Society, 2023)
